Results reported in patent US4321212A, “Method for preparing an optically active α-cyano-3-phenoxybenzyl 2-(4-substituted-phenyl)isovalerate” (Sumitomo Chemical Company Limited, priority 1980, dated 1982).
Converted amounts (≈) assume the structure as drawn.

Columns and labels:
carmine mites = test: Spray test against carmine mites on potted kidney beans (Test Example 3); assay type: in vivo, carmine mite; details: 20% emulsifiable concentrate diluted 500-fold with water, 10 ml/pot, after 10 days
Experimental: 10 to 15 female adult carmine mites were placed on each leaf of potted kidney beans (2-leaf stage) 9 days old after seeding. After standing in a constant temperature room at 27° C. for a week, a lot of mites in various growth stages were observed on the beans. Each of the emulsifiable concentrates prepared from the compounds of this invention, (1), (2), (3), (4), and (5), in the procedures described in Formulation Example 2 was diluted 500-fold with water and sprayed to the beans on a turntable in a proportion of 10 ml/pot.

houseflies = test: Topical application to female adult WHO-strain houseflies (Test Example 2); assay type: in vivo, housefly, WHO-strain (standard susceptible strain); details: 0.5 μl acetone solution to the thorax, female adults, 24 hours
Experimental: The compounds of this invention, (1), (2), (3), (4) and (5), were diluted with acetone to a predetermined concentration, and 0.5 μl of each solution was topically applied to the thorax of female adult WHO-strain houseflies (standard susceptible strain) with a microsyringe. The flies were placed in plastic cups each having a diameter of 11 cm in which a bait (3% sugar water) was placed. 24 hours later, the alive and dead was evaluated to determine the LD50 (median lethal dose) (μg/housefly).

tobacco cutworms = test: Leaf-dip test on fourth instar larvae of tobacco cutworms (Test Example 1); assay type: in vivo, tobacco cutworm; details: foliar, cabbage leaf dip 1 minute, emulsifiable concentrate diluted with water, 24 hours, 10 larvae per group, three replications, read-out: LC50 (concentration required for 50% death)
Experimental: Each of the emulsifiable concentrates prepared from the compounds of this invention, (4) and (5), in the procedures described in Formulation Example 2 was diluted with water to a pre-determined concentration, and mixed with 3,000 times by weight based on the diluted solution of a spreader (Shin-Rino, a registered trademark of Nippon Noyaku Co., Ltd., for a mixture containing 20% of an alkylphenol polyethylene glycol ether and 12% of a salt of lignin sulfonic acid).
The dried leaves were placed in plastic cups (diameter 10 cm, height 4 cm) at a rate of 2 leaves/cup, and the fourth instar larvae of tobacco cutworms were liberated therein. The dead and alive was evaluated after 24 hours and the values of LC50 (concentration required for 50% death) were obtained.
Experiments of three replications were carried out using 10 larvae per group.

Question: Which “damage of the kidney beans by the mites” value (carmine mites) does the source give for `CC(C)[C@H](C(=O)O[C@H](C#N)c1cccc(Oc2ccccc2)c1)c1ccc(OC(F)F)cc1` [Compound (4), α-cyano-3-phenoxybenzyl S-(+)-2-(4-difluoromethoxyphenyl)isovalerate] here?
Answer: hardly observed

Question: And the “LD50 (median lethal dose)” value (houseflies)?
Answer: 0.038 μg/housefly

Question: What about the LC50 (tobacco cutworms) of the same compound?
Answer: 5.9 µg/mL (≈ 13.1 µM)

Question: How did the “damage of the kidney beans by the mites” value (carmine mites) turn out when `COc1ccc([C@@H](C(=O)OC(C#N)c2cccc(Oc3ccccc3)c2)C(C)C)cc1` (stereo partly drawn) [Compound (1), α-cyano-3-phenoxybenzyl S-(+)-2-(4-methoxyphenyl)isovalerate] was run?
Answer: hardly observed

Question: What about the “LD50 (median lethal dose)” value (houseflies) of the same compound?
Answer: 0.18 μg/housefly

Question: How did the “LD50 (median lethal dose)” value (houseflies) turn out when `CC(C)C(C(=O)OC(C#N)c1cccc(Oc2ccccc2)c1)c1ccc(OC(F)F)cc1` (racemic) [(b), reference compound] was run?
Answer: 0.15 μg/housefly

Question: With `COc1ccc(C(C(=O)OC(C#N)c2cccc(Oc3ccccc3)c2)C(C)C)cc1` (racemic) [Reference Compound (a), reference compound] as the compound, how does the “LD50 (median lethal dose)” value (houseflies) read?
Answer: 0.35 μg/housefly

Question: What does the source list for `COc1ccc([C@@H](C(=O)OC(C#N)c2cccc(Oc3ccccc3)c2)C(C)C)cc1` (stereo partly drawn) [Compound (2), α-cyano-3-phenoxybenzyl S-(+)-2-(4-methoxyphenyl)isovalerate]?
Answer: damage of the kidney beans by the mites (carmine mites): hardly observed; LD50 (median lethal dose) (houseflies): 0.13 μg/housefly

Question: `COc1ccc([C@@H](C(=O)O[C@H](C#N)c2cccc(Oc3ccccc3)c2)C(C)C)cc1` [Compound (3), (S)-α-cyano-3-phenoxybenzyl S-(+)-2-(4-methoxyphenyl)isovalerate] was tested. Which “damage of the kidney beans by the mites” value (carmine mites) did it give?
Answer: hardly observed

Question: What about the “LD50 (median lethal dose)” value (houseflies) of the same compound?
Answer: 0.10 μg/housefly

Question: `CC(C)[C@H](C(=O)OC(C#N)c1cccc(Oc2ccccc2)c1)c1ccc(OC(F)F)cc1` (stereo partly drawn) [Compound (5), α-cyano-3-phenoxybenzyl S-(+)-2-(4-difluoromethoxyphenyl)isovalerate] was tested. Which “damage of the kidney beans by the mites” value (carmine mites) did it give?
Answer: hardly observed

Question: What about the “LD50 (median lethal dose)” value (houseflies) of the same compound?
Answer: 0.042 μg/housefly

Question: What about the LC50 (tobacco cutworms) of the same compound?
Answer: 6.9 µg/mL (≈ 15.3 µM)
